Laboratory results reported in ChEMBL document CHEMBL2424658, “Design, synthesis, and evaluation of novel 1-methyl-3-substituted quinazoline-2,4-dione derivatives as antimicrobial agents” (2013).
Converted amounts (≈) assume the structure as drawn.

Tests used:
Type in all cases: functional
Candida albicans = assay: Antifungal activity against Candida albicans ATCC 76615 after overnight incubation by […] method
Saccharomyces cerevisiae = assay: Antifungal activity against Saccharomyces cerevisiae CGMCC2.145 after overnight incubation by […] method
Candida = assay: Antifungal activity against Candida mycoderma after overnight incubation by […] method
Aspergillus flavus = assay: Antifungal activity against Aspergillus flavus 3905 after overnight incubation by […] method
Cryptococcus neoformans = assay: Antifungal activity against Cryptococcus neoformans after overnight incubation by […] method
Escherichia coli = assay: Antibacterial activity against Escherichia coli JM 109 after overnight incubation by […] method
Bacillus subtilis = assay: Antibacterial activity against Bacillus subtilis ATCC 6633 after overnight incubation by […] method
Bacillus = assay: Antibacterial activity against Bacillus proteus after overnight incubation by […] method
Staphylococcus aureus [1] = assay: Antibacterial activity against methicillin-resistant Staphylococcus aureus N315 after overnight incubation by […] method
Pseudomonas aeruginosa = assay: Antibacterial activity against Pseudomonas aeruginosa CR 56 after overnight incubation by […] method
Staphylococcus aureus [2] = assay: Antibacterial activity against Staphylococcus aureus ATCC 25923 after overnight incubation by […] method

Row | SMILES | MIC (Candida albicans) [µg/mL] | MIC (Saccharomyces cerevisiae) [µg/mL] | MIC (Candida) [µg/mL] | MIC (Aspergillus flavus) [µg/mL] | MIC (Cryptococcus neoformans) [µg/mL] | MIC (Escherichia coli) [µg/mL] | MIC (Bacillus subtilis) [µg/mL] | MIC (Bacillus) [µg/mL] | MIC (Staphylococcus aureus [1]) [µg/mL] | MIC (Pseudomonas aeruginosa) [µg/mL] | MIC (Staphylococcus aureus [2]) [µg/mL]
1 | NC(=O)OC[C@H](O)[C@@H](O)[C@H](N)C(=O)N[C@H](C(=O)O)[C@H]1O[C@@H](n2cc(C(=O)O)c(=O)[nH]c2=O)[C@H](O)[C@@H]1O | 32 (≈ 61.4 µM) | 16 (≈ 30.7 µM) | 8 (≈ 15.3 µM) | 32 (≈ 61.4 µM) | 0.0312 (≈ 0.0599 µM) |  |  |  |  |  | 
2 | Cn1c(=O)n(CCOC(=O)CNC(=O)c2ccco2)c(=O)c2ccccc21 | 32 (≈ 86.2 µM) |  | 64 (≈ 172 µM) | 64 (≈ 172 µM) | 128 (≈ 345 µM) | 4 (≈ 10.8 µM) | 4 (≈ 10.8 µM) | 128 (≈ 345 µM) | > 512 | 128 (≈ 345 µM) | 256 (≈ 689 µM)
3 | Cn1c(=O)n(CCOC(=O)CNC(=O)/C=C\c2ccccc2)c(=O)c2ccccc21 | 512 (≈ 1260 µM) |  | 512 (≈ 1260 µM) | 32 (≈ 78.5 µM) | 8 (≈ 19.6 µM) | 16 (≈ 39.3 µM) | 4 (≈ 9.82 µM) | 256 (≈ 628 µM) | 4 (≈ 9.82 µM) | > 512 | 128 (≈ 314 µM)
4 | COc1ccc(C(=O)NCC(=O)OCCn2c(=O)c3ccccc3n(C)c2=O)cc1 | 32 (≈ 77.8 µM) |  | 512 (≈ 1240 µM) | 128 (≈ 311 µM) | 32 (≈ 77.8 µM) | 512 (≈ 1240 µM) | 4 (≈ 9.72 µM) | 512 (≈ 1240 µM) | 256 (≈ 622 µM) | 128 (≈ 311 µM) | 512 (≈ 1240 µM)
5 | Cn1c(=O)n(CCOC(=O)CNC(=O)c2cccc([N+](=O)[O-])c2)c(=O)c2ccccc21 | 64 (≈ 150 µM) |  | 16 (≈ 37.5 µM) | 64 (≈ 150 µM) | 128 (≈ 300 µM) | 16 (≈ 37.5 µM) | 256 (≈ 600 µM) | 128 (≈ 300 µM) | 4 (≈ 9.38 µM) | 512 (≈ 1200 µM) | 128 (≈ 300 µM)
6 | Cn1c(=O)n(CCOC(=O)CNC(=O)c2ccccc2)c(=O)c2ccccc21 | 512 (≈ 1340 µM) |  | > 512 | 64 (≈ 168 µM) | 32 (≈ 83.9 µM) | 128 (≈ 336 µM) | 512 (≈ 1340 µM) | > 512 | > 512 | > 512 | 256 (≈ 671 µM)
7 | Cn1c(=O)n(CCOC(=O)CNC(=O)c2ccc(Cl)cc2)c(=O)c2ccccc21 | 64 (≈ 154 µM) |  | 512 (≈ 1230 µM) | 32 (≈ 77 µM) | 32 (≈ 77 µM) | 256 (≈ 616 µM) | 128 (≈ 308 µM) | 256 (≈ 616 µM) | 512 (≈ 1230 µM) | 256 (≈ 616 µM) | 128 (≈ 308 µM)
8 | Cc1ccccc1C(=O)NCC(=O)OCCn1c(=O)c2ccccc2n(C)c1=O | 512 (≈ 1290 µM) |  | 512 (≈ 1290 µM) | 128 (≈ 324 µM) | 16 (≈ 40.5 µM) | 32 (≈ 80.9 µM) | 64 (≈ 162 µM) | 32 (≈ 80.9 µM) | 32 (≈ 80.9 µM) | 256 (≈ 647 µM) | 512 (≈ 1290 µM)
9 | Cn1c(=O)n(CCOC(=O)CNC(=O)c2cccc(F)c2)c(=O)c2ccccc21 | 16 (≈ 40.1 µM) |  | 512 (≈ 1280 µM) | 64 (≈ 160 µM) | 256 (≈ 641 µM) | 128 (≈ 320 µM) | 256 (≈ 641 µM) | 512 (≈ 1280 µM) | 32 (≈ 80.1 µM) | 128 (≈ 320 µM) | 128 (≈ 320 µM)
10 | CN[C@@H]1[C@H](O[C@H]2[C@H](O[C@H]3[C@H](O)[C@@H](O)[C@H](N=C(N)N)[C@@H](O)[C@@H]3N=C(N)N)O[C@@H](C)[C@]2(O)C=O)O[C@@H](CO)[C@H](O)[C@H]1O [STREPTOMYCIN] |  |  |  |  |  | 64 (≈ 110 µM) | 32 (≈ 55 µM) | 16 (≈ 27.5 µM) | > 512 | 64 (≈ 110 µM) | 32 (≈ 55 µM)
11 | Cn1c(=O)n(CCOC(=O)CNC(=O)c2cccs2)c(=O)c2ccccc21 | 512 (≈ 1320 µM) |  | 512 (≈ 1320 µM) | 64 (≈ 165 µM) | 256 (≈ 661 µM) | 64 (≈ 165 µM) | 32 (≈ 82.6 µM) | 64 (≈ 165 µM) | 32 (≈ 82.6 µM) | 64 (≈ 165 µM) | 512 (≈ 1320 µM)
12 | Cn1c(=O)n(CCOC(=O)CNC(=O)c2ccc([N+](=O)[O-])cc2)c(=O)c2ccccc21 | 512 (≈ 1200 µM) |  | 64 (≈ 150 µM) |  |  | 128 (≈ 300 µM) | 512 (≈ 1200 µM) | 128 (≈ 300 µM) | 8 (≈ 18.8 µM) | 64 (≈ 150 µM) | 256 (≈ 600 µM)
13 | Cc1ccc(C(=O)NCC(=O)OCCn2c(=O)c3ccccc3n(C)c2=O)cc1 | 32 (≈ 80.9 µM) |  | 512 (≈ 1290 µM) | 64 (≈ 162 µM) | 16 (≈ 40.5 µM) | 512 (≈ 1290 µM) | 64 (≈ 162 µM) | 32 (≈ 80.9 µM) | 512 (≈ 1290 µM) | 128 (≈ 324 µM) | 512 (≈ 1290 µM)
14 | Cn1c(=O)n(CCOC(=O)CNC(=O)c2ccccc2Cl)c(=O)c2ccccc21 | 32 (≈ 77 µM) |  | 64 (≈ 154 µM) | 128 (≈ 308 µM) | 128 (≈ 308 µM) | 512 (≈ 1230 µM) | 64 (≈ 154 µM) | 128 (≈ 308 µM) | > 512 | 128 (≈ 308 µM) | 512 (≈ 1230 µM)
15 | Cn1c(=O)n(CCOC(=O)CNC(=O)c2ccc(F)cc2)c(=O)c2ccccc21 | 32 (≈ 80.1 µM) |  | 64 (≈ 160 µM) | 64 (≈ 160 µM) | 16 (≈ 40.1 µM) | 64 (≈ 160 µM) | 128 (≈ 320 µM) | 512 (≈ 1280 µM) | 4 (≈ 10 µM) | 256 (≈ 641 µM) | 256 (≈ 641 µM)
16 | OC(Cn1cncn1)(Cn1cncn1)c1ccc(F)cc1F [FLUCONAZOLE] | 16 (≈ 52.2 µM) | > 512 | 8 (≈ 26.1 µM) | 64 (≈ 209 µM) | 0.0312 (≈ 0.102 µM) |  |  |  |  |  | 
